Measurements reported in patent US20240376094A2, “SELECTIVE BCL-XL PROTAC COMPOUNDS AND METHODS OF USE” (Les Laboratoires Servier, priority 2021, published 2024).

What was measured:
Assay type in all cases: cell-based
[1] = tested on: MOLT-4 cells; assay: MOLT-4 cell viability, CTG assay; conditions: Homo sapiens, MOLT-4, 48 h
In short: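 Cells grown in RPMI 1640 with 10% FBS at 37° C, 5% CO2, then exposed to compounds for 48 h (11-point 5-fold dilution, triplicates). ATP measured by CellTiter-Glo luminescence; IC50 from four-parameter fit versus control, mean of ≥2 independent experiments.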

[2] = molecular target: T1, Bcl-xL (Homo sapiens, UniProt Q07817); assay: HCT116 Bcl-xL degradation, capillary-based immunoassay (WES); conditions: HCT116, 24 h, 9-point serial dilution
T1 construct: Measured levels of Bcl-xL protein of HCT116 cells treated with the tested compounds; host or cells: HCT116
In short: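 HCT116 cells treated 24 h with compound at 10/100 nM and/or 9-point dilution (quadruplicates), then lysed. Bcl-xL measured by capillary WES immunoassay, normalized to cofilin and expressed as % of untreated cells. DC50 from four-parameter curve fit.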

[3] = tested on: EBC-1 lung cancer cell line; assay: EBC-1 cell proliferation, CellTiter-Glo assay; conditions: Homo sapiens, 120 h; Ebc-1 cell viability, CTG assay, 5 days of treatment; read-out: CTG 5 day Ebc1 GI50
In short: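 EBC-1 cells seeded at 1000 per well overnight, then exposed to 10-point dilutions (0.508 nM–10 μM final) for 5 days at 37 °C, in triplicate. ATP luminescence by CellTiter-Glo, normalised to untreated wells; GI50 from four-parameter logistic fit, runs valid only with at least one doubling.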

[4] = molecular target: T2, HiBiT-tagged BCL-xL (Homo sapiens, UniProt Q07817); assay: NCI-H1650 BCL-xL protein levels, Nano-Glo HiBiT Lytic Detection; conditions: NCI-H1650 expressing HiBiT-tagged BCL-xL, overnight incubation, read-out: Bcl-xl HIBIT NCIH1650 DC50
T2 construct: expressed in transfected cells; host or cells: NCI-H1650 (ATCC No. CRL-5883), engineered HiBiT cell line
In short: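 NCI-H1650 cells expressing HiBiT-tagged BCL-xL (5000/well) were treated overnight at 37° C with 10 concentrations, final 0.508 nM-10 μM, in triplicate. Remaining BCL-xL measured by Nano-Glo HiBiT lytic luminescence, normalized to untreated cells; 50% values by four-parameter logistic fit.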

T1 sequence (Q07817 whole entry): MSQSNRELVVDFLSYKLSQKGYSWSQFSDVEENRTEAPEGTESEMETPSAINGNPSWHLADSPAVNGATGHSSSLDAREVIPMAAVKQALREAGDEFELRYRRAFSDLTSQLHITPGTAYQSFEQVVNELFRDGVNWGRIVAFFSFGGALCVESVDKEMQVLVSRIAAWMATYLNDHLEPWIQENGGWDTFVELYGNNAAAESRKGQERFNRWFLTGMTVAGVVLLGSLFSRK
T2 sequence (Q07817 whole entry): as above

## Cc1ncsc1-c1ccc([C@H](C)NC(=O)[C@@H]2C[C@@H](O)CN2C(=O)[C@@H](NC(=O)C2CCN(C(=O)CCCCCCCCCCN(C)CCOC34CC5(C)CC(C)(CC(Cn6ncc(-c7ccc(N8CCCc9c8nnc(Nc8nc%10ccccc%10s8)c9C)nc7C(=O)O)c6C)(C5)C3)C4)CC2)C(C)(C)C)cc1 [Example 82, 6-[3-(1,3-benzothiazol-2-ylamino)-4-methyl-6,7-dihydro-5H-pyrido[2,3-c]pyridazin-8-yl]-3-[1-[[3-[2-[[11-[4-[[(1S)-1-[(2S,4R)-4-hydroxy-2-[[(1S)-1-[4-(4-methylthiazol-5-yl)phenyl]ethyl]carbamoyl]pyrrolidine-1-carbonyl]-2,2-dimethyl-propyl]carbamoyl]-1-piperidyl]-11-oxo-undecyl]-methyl-amino]ethoxy]-5,7-dimethyl-1-adamantyl]methyl]-5-methyl-pyrazol-4-yl]pyridine-2-carboxylic acid]
[1]
  IC50: 10 nM
[2]
  DC50: > 316 nM
[3]
  GI50: 157 nM
[4]
  DC50: > 1670 nM

## Cc1cc(N(CCCCN(C)C(=O)CCCCCCCCCCCCC(=O)N[C@H](C(=O)N2C[C@H](O)C[C@H]2C(=O)N[C@@H](C)c2ccc(-c3scnc3C)cc2)C(C)(C)C)c2ccc(-c3cnn(CC45CC6(C)CC(C)(C4)CC(OCCN(C)C)(C6)C5)c3C)c(C(=O)O)n2)nnc1Nc1nc2ccccc2s1 [Example 116, 6-[[6-(1,3-benzothiazol-2-ylamino)-5-methyl-pyridazin-3-yl]-[4-[[14-[[(1S)-1-[(2S,4R)-4-hydroxy-2-[[(1S)-1-[4-(4-methylthiazol-5-yl)phenyl]ethyl]carbamoyl]pyrrolidine-1-carbonyl]-2,2-dimethyl-propyl]amino]-14-oxo-tetradecanoyl]-methyl-amino]butyl]amino]-3-[1-[[3-[2-(dimethylamino)ethoxy]-5,7-dimethyl-1-adamantyl]methyl]-5-methyl-pyrazol-4-yl]pyridine-2-carboxylic acid]
[1]
  IC50: 16.1 nM
[2]
  DC50: 3.6 nM
[3]
  GI50: 45 nM
[4]
  DC50: 1 nM

## CNC(=O)c1nc(N2CCCc3c2nnc(Nc2nc4ccccc4s2)c3C)ccc1-c1cnn(CC23CC4(C)CC(C)(C2)CC(OCCN(C)CCCCCCCCCCCCCC(=O)N[C@H](C(=O)N2C[C@H](O)C[C@H]2C(=O)N[C@@H](C)c2ccc(-c5scnc5C)cc2)C(C)(C)C)(C4)C3)c1C [Example 156, 6-[3-(1,3-benzothiazol-2-ylamino)-4-methyl-6,7-dihydro-5H-pyrido[2,3-c]pyridazin-8-yl]-3-[1-[[3-[2-[[14-[[(1S)-1-[(2S,4R)-4-hydroxy-2-[[(1S)-1-[4-(4-methylthiazol-5-yl)phenyl]ethyl]carbamoyl]pyrrolidine-1-carbonyl]-2,2-dimethyl-propyl]amino]-14-oxo-tetradecyl]-methyl-amino]ethoxy]-5,7-dimethyl-1-adamantyl]methyl]-5-methyl-pyrazol-4-yl]-N-methyl-pyridine-2-carboxamide]
[1]
  IC50: 6.48 nM
[2]
  DC50: 14.5 nM
[3]
  GI50: 27 nM
[4]
  DC50: 228 nM

## Cc1ncsc1-c1ccc([C@H](C)NC(=O)[C@@H]2C[C@@H](O)CN2C(=O)[C@@H](NC(=O)CCCCCCCCNC(=O)c2nc(N3CCCc4c3nnc(Nc3nc5ccccc5s3)c4C)ccc2-c2cnn(C[C@]34C[C@]5(C)C[C@](C)(C3)C[C@@](OCCN3CCCC3)(C5)C4)c2C)C(C)(C)C)cc1 [Example 124, 6-[3-(1,3-benzothiazol-2-ylamino)-4-methyl-6,7-dihydro-5H-pyrido[2,3-c]pyridazin-8-yl]-3-[1-[[3,5-dimethyl-7-(2-pyrrolidin-1-ylethoxy)-1-adamantyl]methyl]-5-methyl-pyrazol-4-yl]-N-[9-[[(1S)-1-[(2S,4R)-4-hydroxy-2-[[(1S)-1-[4-(4-methylthiazol-5-yl)phenyl]ethyl]carbamoyl]pyrrolidine-1-carbonyl]-2,2-dimethyl-propyl]amino]-9-oxo-nonyl]pyridine-2-carboxamide]
[1]
  IC50: 3.69 nM
[2]
  DC50: 1.01 nM
[3]
  GI50: 25 nM
[4]
  DC50: 1 nM

## Cc1ncsc1-c1ccc(CNC(=O)[C@@H]2C[C@@H](O)CN2C(=O)[C@@H](NC(=O)C2(F)CC2)C(C)(C)C)c(OCCCCCCCCCCCCCN(C)CCOC23CC4(C)CC(C)(CC(Cn5ncc(-c6ccc(N7CCCc8c7nnc(Nc7nc9ccccc9s7)c8C)nc6C(=O)O)c5C)(C4)C2)C3)c1 [Example 85, 6-[3-(1,3-benzothiazol-2-ylamino)-4-methyl-6,7-dihydro-5H-pyrido[2,3-c]pyridazin-8-yl]-3-[1-[[3-[2-[13-[2-[[[(2S,4R)-1-[(2S)-2-[(1-fluorocyclopropanecarbonyl)amino]-3,3-dimethyl-butanoyl]-4-hydroxy-pyrrolidine-2-carbonyl]amino]methyl]-5-(4-methylthiazol-5-yl)phenoxy]tridecyl-methyl-amino]ethoxy]-5,7-dimethyl-1-adamantyl]methyl]-5-methyl-pyrazol-4-yl]pyridine-2-carboxylic acid]
[1]
  IC50: 4.17 nM
[2]
  DC50: 0.291 nM
[3]
  GI50: 64 nM
[4]
  DC50: 5 nM

## Cc1ncsc1-c1ccc(CNC(=O)[C@@H]2C[C@@H](O)CN2C(=O)[C@@H](NC(=O)C2(F)CC2)C(C)(C)SCCCCCCCCCCCCCCN(C)CCOC23CC4(C)CC(C)(CC(Cn5ncc(-c6ccc(N7CCCc8c7nnc(Nc7nc9ccccc9s7)c8C)nc6C(=O)O)c5C)(C4)C2)C3)cc1 [Example 80, 6-[3-(1,3-benzothiazol-2-ylamino)-4-methyl-6,7-dihydro-5H-pyrido[2,3-c]pyridazin-8-yl]-3-[1-[[3-[2-[14-[(2R)-2-[(1-fluorocyclopropanecarbonyl)amino]-3-[(2S,4R)-4-hydroxy-2-[[4-(4-methylthiazol-5-yl)phenyl]methylcarbamoyl]pyrrolidin-1-yl]-1,1-dimethyl-3-oxo-propyl]sulfanyltetradecyl-methyl-amino]ethoxy]-5,7-dimethyl-1-adamantyl]methyl]-5-methyl-pyrazol-4-yl]pyridine-2-carboxylic acid]
[1]
  IC50: 6.11 nM
[2]
  DC50: 3.57 nM
[3]
  GI50: 92 nM
[4]
  DC50: > 1670 nM

## Cc1ncsc1-c1ccc([C@H](C)NC(=O)[C@@H]2C[C@@H](O)CN2C(=O)[C@@H](NC(=O)CCOCCN(C)CCOC23CC4(C)CC(C)(CC(Cn5ncc(-c6ccc(N7CCCc8c7nnc(Nc7nc9ccccc9s7)c8C)nc6C(=O)O)c5C)(C4)C2)C3)C(C)(C)C)cc1 [Example 103, 6-[3-(1,3-benzothiazol-2-ylamino)-4-methyl-6,7-dihydro-5H-pyrido[2,3-c]pyridazin-8-yl]-3-[1-[[3-[2-[2-[3-[[(1S)-1-[(2S,4R)-4-hydroxy-2-[[(1S)-1-[4-(4-methylthiazol-5-yl)phenyl]ethyl]carbamoyl]pyrrolidine-1-carbonyl]-2,2-dimethyl-propyl]amino]-3-oxo-propoxy]ethyl-methyl-amino]ethoxy]-5,7-dimethyl-1-adamantyl]methyl]-5-methyl-pyrazol-4-yl]pyridine-2-carboxylic acid]
[1]
  IC50: 63.4 nM
[2]
  DC50: 13.6 nM
[3]
  GI50: 378 nM
[4]
  DC50: > 1670 nM

## Cc1ncsc1-c1ccc([C@H](C)NC(=O)[C@@H]2C[C@@H](O)CN2C(=O)[C@@H](NC(=O)C2CCN(C(=O)CCCCCCCN(C)CCOC34CC5(C)CC(C)(CC(Cn6ncc(-c7ccc(N8CCCc9c8nnc(Nc8nc%10ccccc%10s8)c9C)nc7C(=O)O)c6C)(C5)C3)C4)CC2)C(C)(C)C)cc1 [Example 81, 6-[3-(1,3-benzothiazol-2-ylamino)-4-methyl-6,7-dihydro-5H-pyrido[2,3-c]pyridazin-8-yl]-3-[1-[[3-[2-[[8-[4-[[(1S)-1-[(2S,4R)-4-hydroxy-2-[[(1S)-1-[4-(4-methylthiazol-5-yl)phenyl]ethyl]carbamoyl]pyrrolidine-1-carbonyl]-2,2-dimethyl-propyl]carbamoyl]-1-piperidyl]-8-oxo-octyl]-methyl-amino]ethoxy]-5,7-dimethyl-1-adamantyl]methyl]-5-methyl-pyrazol-4-yl]pyridine-2-carboxylic acid]
[1]
  IC50: 15.1 nM
[2]
  DC50: > 316 nM
[3]
  GI50: 203 nM
[4]
  DC50: > 1670 nM

## Cc1cc(N(CCCCN(C)C(=O)CCCCCCCCCCC(=O)N[C@H](C(=O)N2C[C@H](O)C[C@H]2C(=O)N[C@@H](C)c2ccc(-c3scnc3C)cc2)C(C)(C)C)c2ccc(-c3cnn(CC45CC6(C)CC(C)(C4)CC(OCCN(C)C)(C6)C5)c3C)c(C(=O)O)n2)nnc1Nc1nc2ccccc2s1 [Example 112, 6-[[6-(1,3-benzothiazol-2-ylamino)-5-methyl-pyridazin-3-yl]-[4-[[12-[[(1S)-1-[(2S,4R)-4-hydroxy-2-[[(1S)-1-[4-(4-methylthiazol-5-yl)phenyl]ethyl]carbamoyl]pyrrolidine-1-carbonyl]-2,2-dimethyl-propyl]amino]-12-oxo-dodecanoyl]-methyl-amino]butyl]amino]-3-[1-[[3-[2-(dimethylamino)ethoxy]-5,7-dimethyl-1-adamantyl]methyl]-5-methyl-pyrazol-4-yl]pyridine-2-carboxylic acid]
[1]
  IC50: 15.7 nM
[2]
  DC50: 0.495 nM
[3]
  GI50: 437 nM
[4]
  DC50: 0.5 nM
